From ChEMBL document CHEMBL5625215, “Antiproliferative activity of meso-substituted BODIPY photocages: Effect of electrophiles vs singlet oxygen” (Eur J Med Chem, 2023) come the findings set out here.

The source made the active and inactive calls. The calls are words filed in the database; no cut-off is given here.

Data set [1] relates to MCF7. In words: Antiproliferative activity against human MCF7 cells assessed as inhibition of cell growth incubated for 72 hrs under dark condition by MTT assay. Particulars: MCF7, 72 h. The class given is functional, cell-based. (Tetrazolium dyes change colour on reduction, which living cells bring about.)
The subject of data set [2] is MCF7. In words: Antiproliferative activity against human MCF7 cells assessed as inhibition of cell growth incubated for 72 hrs under photoirradiation with 6 cool white lamps for 15 mins at 4,28 and 52 hrs after compound addition by MTT assay. It is filed as functional, cell-based. Particulars: MCF7, light or radiation study.
Data set [3] concerns NCI-H460. Briefly: Antiproliferative activity against human NCI-H460 cells assessed as inhibition of cell growth incubated for 72 hrs under dark condition by MTT assay. The class given is functional, cell-based. Particulars: NCI-H460, 72 h.
Data set [4] has as its system NCI-H460. In words: Antiproliferative activity against human NCI-H460 cells assessed as inhibition of cell growth incubated for 72 hrs under photoirradiation with 6 cool white lamps for 15 mins at 4,28 and 52 hrs after compound addition by MTT assay. The class given is functional, cell-based. To be noted: NCI-H460, light or radiation study.
The subject of data set [5] is HCT-116. Briefly: Antiproliferative activity against human HCT-116 cells assessed as inhibition of cell growth incubated for 72 hrs under dark condition by MTT assay. It is filed as functional, cell-based. Particulars: HCT-116, 72 h.
The test system of data set [6] is HCT-116. Briefly: Antiproliferative activity against human HCT-116 cells assessed as inhibition of cell growth incubated for 72 hrs under photoirradiation with 6 cool white lamps for 15 mins at 4,28 and 52 hrs after compound addition by MTT assay. It is filed as functional, cell-based. Particulars: HCT-116, light or radiation study.
Data set [7] can be described thus: Absorption property of compound in CH3CN assessed as maximal wavelength by UV-vis spectrophotometer. The class given is physicochemical.
The nature of data set [8]: Emission property of compound in CH3CN assessed as maximal wavelength by […]. It is filed as physicochemical.
Data set [9] can be described thus: Absorption property of compound in CH3CN assessed as maximal molar absorption coefficient by UV-vis spectrophotometer. The class given is physicochemical.
A short description of data set [10]: Fluorescence property of compound in CH3CN assessed as fluorescence quantum yield by spectrofluorometric analysis. It is filed as physicochemical.
Data set [11] in a line: Induction of singlet oxygen production in CH3CN assessed as decrease in fluorescence intensity at 450 nm under photoirradiation with visible light and measured after 15 sec by DPBF based assay relative to control. On the set-up: scale not given: the % may be the effect or the level left. It is filed as functional.
The nature of data set [12]: Induction of singlet oxygen production in CH3CN assessed as decrease in fluorescence intensity at 450 nm under photoirradiation with visible light and measured after 30 sec by DPBF based assay relative to control. The class given is functional. On the set-up: scale not given: the % may be the effect or the level left.
Data set [13] in a line: Induction of singlet oxygen production in CH3CN assessed as decrease in fluorescence intensity at 450 nm under photoirradiation with visible light and measured after 45 sec by DPBF based assay relative to control. The class given is functional. On the set-up: scale not given: the % may be the effect or the level left.
Data set [14] is described as follows: Induction of singlet oxygen production in CH3CN assessed as decrease in fluorescence intensity at 450 nm under photoirradiation with visible light and measured after 1 min by DPBF based assay relative to control. It is filed as functional. On the set-up: scale not given: the % may be the effect or the level left.
Data set [15] in a line: Induction of singlet oxygen production in CH3CN assessed as singlet oxygen quantum yield at 450 nm under photoirradiation with visible light and measured after 15 to 60 sec by DPBF based assay. The class given is functional. To be noted: time 15-60 sec.
Data set [16] deals with HCT-116. In words: Induction of ROS generation in human HCT-116 cells at 5 uM incubated for 1 hrs under dark condition by DCFH-DA staining based fluorescence analysis. The class given is functional, cell-based.
Data set [17] relates to HCT-116. Briefly: Induction of ROS generation in human HCT-116 cells assessed as increase in oxidative stress at 5 uM preincubated with compound for 1 hrs followed by photoirradiation with 6 cool white lamps by DCFH-DA staining based fluorescence analysis. The class given is functional, cell-based.
The nature of data set [18]: Cytotoxicity against HEK293T cells assessed as inhibition of cell growth incubated for 72 hrs under dark condition by MTT assay. To be noted: human. It is filed as toxicity, cell-based, HEK-293T.
Data set [19] can be described thus: Cytotoxicity against HEK293T cells assessed as inhibition of cell growth incubated for 72 hrs under photoirradiation with 6 cool white lamps for 15 mins at 4,28 and 52 hrs after compound addition by MTT assay. It is filed as toxicity, cell-based, HEK-293T. Particulars: human.
Data set [20] is described as follows: Cytotoxicity against human HaCaT cells assessed as inhibition of cell growth incubated for 72 hrs under dark condition by MTT assay. It is filed as toxicity, cell-based.
The nature of data set [21]: Cytotoxicity against human HaCaT cells assessed as inhibition of cell growth incubated for 72 hrs under photoirradiation with 6 cool white lamps for 15 mins at 4,28 and 52 hrs after compound addition by MTT assay. It is filed as toxicity, cell-based.

In the case of `COc1cccc(CO)c1OCC1=C2C(C)=C(Br)C(C)=[N+]2[B-](C)(C)n2c(C)c(Br)c(C)c21`, the IC50 in [1] is 11 µM; in data set [2], 0.15 µM; in data set [3], 19 µM; in data set [4], 0.18 µM; in data set [5], 14 µM; in [6] it was 0.192 µM. Moreover, the Activity is 530 nm in [7], 555 nm in data set [8], 54912 M⁻¹ cm⁻¹ in data set [9] and 0.04 in data set [10].

For the molecule `CC1=CC(C)=[N+]2C1=C(C=O)c1c(C)cc(C)n1[B-]2(C)C`, the IC50 is 20 µM in [1]; 15 µM in [2]; above 100 µM in [3]; 61 µM in data set [4]; 49 µM in data set [5]; 40 µM in data set [6].

As to `CC1=CC(C)=[N+]2C1=C(COc1ccccc1CO)c1c(C)cc(C)n1[B-]2(C)C`, the Activity came out at 1.1% in data set [11]; 8.8% in data set [12]; 18.9% in data set [13]; 26.9% in [14]; 0.1 in data set [15]; 510 nm in [7]. Moreover, the Activity in data set [8] was 527 nm; in data set [9], 87209 M⁻¹ cm⁻¹; in data set [10], 0.33. Also, the IC50 worked out at 14 µM in [1]; 0.2 µM in data set [2]; 16.1 µM in data set [3]; 0.13 µM in data set [4]; 13 µM in data set [5]; 0.15 µM in [6]. Moreover, the outcome in data set [16] was inactive. In addition, the outcome in data set [17] was Active.

As for `COc1cccc(COC(C)=O)c1OCC1=C2C(C)=C(I)C(C)=[N+]2[B-](C)(C)n2c(C)c(I)c(C)c21`, the Activity in [11] amounted to 84.9%; in data set [12] it was 98.8%; in [13] it was 100%; in [15], 0.78; in data set [7], 535 nm; in [8], 545 nm. In addition, the Activity was 58719 M⁻¹ cm⁻¹ in data set [9] and 0.017 in data set [10]. In addition, the IC50 in data set [1] was above 100 µM; in data set [2], 0.13 µM; in [3], above 100 µM; in data set [4], 0.22 µM; in data set [5] it was above 100 µM; in [6] it was 0.176 µM. Besides, the IC50 at 72 h in [18] was above 100 µM; in data set [19] it was 0.2 µM; in data set [20] it was above 100 µM; in [21] it was 0.2 µM.

Turning to `CC(=O)OCc1ccccc1OCC1=C2C(C)=C(I)C(C)=[N+]2[B-](C)(C)n2c(C)c(I)c(C)c21`, the IC50 in data set [1] is 63 µM; in data set [2], 0.17 µM; in data set [3] it was at least 100 µM; in [4] it was 0.25 µM; in [5], at least 100 µM; in data set [6] it was 0.18 µM. The Activity in data set [7] stood at 537 nm; in data set [8] it was 565 nm; in data set [9], 37520 M⁻¹ cm⁻¹; in [10] it was 0.005.

Consider `CC(=O)OCC1=C2C(C)=CC(C)=[N+]2[B-](F)(F)n2c(C)cc(C)c21`, for which the Activity is 517 nm in data set [7], 528 nm in data set [8], 99848 M⁻¹ cm⁻¹ in data set [9] and 0.99 in data set [10].

Turning to `COc1cccc(CO)c1OCC1=C2C(C)=C(I)C(C)=[N+]2[B-](C)(C)n2c(C)c(I)c(C)c21`, the IC50 came out at 12 µM in [1]; 0.1 µM in data set [2]; 31 µM in data set [3]; 0.15 µM in data set [4]; 13 µM in data set [5]; 0.15 µM in [6]. For the same molecule, the Activity amounted to 535 nm in data set [7], 560 nm in data set [8], 65694 M⁻¹ cm⁻¹ in [9] and 0.012 in [10].

Turning to `COc1cccc(CO)c1OCC1=C2C(C)=CC(C)=[N+]2[B-](C)(C)n2c(C)cc(C)c21`, the IC50 amounted to 15 µM in [1]; 0.2 µM in data set [2]; 16 µM in [3]; 0.24 µM in data set [4]; 12 µM in [5]; 0.38 µM in data set [6]. The result in data set [16] was inactive. Further, the result in data set [17] was Active. Besides, the Activity came to 510 nm in data set [7], 521 nm in data set [8], 109069 M⁻¹ cm⁻¹ in data set [9] and 0.33 in data set [10].

For the molecule `CO[B-]1(C)n2c(C)c(Br)c(C)c2C(COc2ccccc2CO)=C2C(C)=C(Br)C(C)=[N+]21` (configuration not stated), the IC50 was 27 µM in data set [1]; 6 µM in data set [2]; above 100 µM in data set [3]; 17 µM in [4]; above 100 µM in data set [5]; 14 µM in [6].

As for `CO[B-]1(C)n2c(C)c(I)c(C)c2C(COc2ccccc2COC(C)=O)=C2C(C)=C(I)C(C)=[N+]21` (configuration not stated), the IC50 is 27 µM in data set [1]; 0.7 µM in [2]; above 100 µM in data set [3]; 1.3 µM in [4]; above 100 µM in [5]; 1.7 µM in data set [6].

As to `CO[B-]1(C)n2c(C)cc(C)c2C(COc2ccccc2COC(C)=O)=C2C(C)=CC(C)=[N+]21` (configuration not stated), the IC50 stood at 13 µM in [1]; 1.18 µM in [2]; 20 µM in [3]; 2 µM in data set [4]; 17 µM in [5]; 2.3 µM in data set [6].

For the molecule `CC1=C(Br)C(C)=[N+]2C1=C(COc1ccccc1CO)c1c(C)c(Br)c(C)n1[B-]2(C)C`, the IC50 is 17 µM in data set [1]; 0.23 µM in data set [2]; 69 µM in data set [3]; 0.6 µM in [4]; 26 µM in [5]; 0.4 µM in [6]. In addition, the Activity was found to be 531 nm in data set [7], 557 nm in data set [8], 42810 M⁻¹ cm⁻¹ in data set [9] and 0.04 in data set [10].

In the case of `CO[B-]1(C)n2c(C)c(I)c(C)c2C(COc2ccccc2CO)=C2C(C)=C(I)C(C)=[N+]21` (configuration not stated), the IC50 is 8 µM in [1]; 8 µM in data set [2]; 34 µM in [3]; at most 50 µM in data set [4]; 42 µM in data set [5]; 30 µM in data set [6].

`COc1cccc(COC(C)=O)c1OCC1=C2C(C)=C(Br)C(C)=[N+]2[B-](C)(OC)n2c(C)c(Br)c(C)c21` (configuration not stated): the IC50 in data set [1] worked out at 15 µM; in data set [2], 2 µM; in data set [3], 48 µM; in data set [4] it was 16 µM; in [5], 24 µM; in data set [6], 6 µM.

Consider `CC1=C(I)C(C)=[N+]2C1=C(COc1ccccc1CO)c1c(C)c(I)c(C)n1[B-]2(C)C`, for which the IC50 stood at 27 µM in data set [1]; 0.13 µM in [2]; 53 µM in data set [3]; 0.18 µM in [4]; 37 µM in data set [5]; 0.13 µM in data set [6]. Moreover, the Activity in [7] was 537 nm; in [8], 560 nm; in [9] it was 41143 M⁻¹ cm⁻¹; in [10], 0.005.

In general, IC50 refers to the concentration that inhibits the measured activity by half.
